In ChEMBL document CHEMBL5634135, “Design, synthesis, and biological evaluation of quinoline-piperazine/pyrrolidine derivatives as possible antileishmanial agents” (Eur J Med Chem, 2023):
The source made the active and inactive calls. No cut-off for these calls is given here.

Columns and labels:
[1] = system: Leishmania donovani; assay: Antileishmanial activity against amastigote form of luciferase expressing Leishmania donovani MHOM/IN/80/Dd8 infected in mouse J774.A1 cells assessed as inhibition of parasite growth at 50 uM measured after 72 hrs by luciferase reporter gene assay; type: functional, organism-based
[2] = system: Leishmania donovani; assay: Antileishmanial activity against amastigote form of luciferase expressing Leishmania donovani MHOM/IN/80/Dd8 infected in mouse J774.A1 cells assessed as inhibition of parasite growth measured after 72 hrs by luciferase reporter gene assay; type: functional, organism-based; conditions: MHOM/IN/80/Dd8, J774.A1, 72 h
[3] = Safety index, ratio of CC50 for cytotoxicity against mouse J774.A1 cells to IC50 for antileishmanial activity against amastigote form of luciferase expressing Leishmania donovani MHOM/IN/80/Dd8 infected in mouse J774.A1; type: toxicity, cell-based; conditions: read-out: Ratio CC50/IC50
[4] = Cytotoxicity against mouse J774.A1 cells assessed as reduction in cell viability incubated for 48 hrs by MTT assay; type: toxicity, cell-based
[5] = system: Leishmania infantum; assay: Antileishmanial activity against promastigote form of Leishmania infantum BCN150 overexpressing iRFP assessed as inhibition of parasite growth measured after 52 hrs; type: functional, organism-based; conditions: BCN150, 52 h
[6] = system: Leishmania infantum; assay: Antileishmanial activity against amastigote form of Leishmania infantum BCN150 overexpressing iRFP assessed as inhibition of parasite growth measured after 52 hrs; type: functional, organism-based; conditions: BCN150, 52 h
[7] = MRT in golden hamster at 50 mg/kg, ip measured for 24 hrs by LC-MS/MS analysis; type: ADME, organism-based, Mesocricetus auratus; conditions: in vivo
[8] = Toxicity against golden hamster infected with amastigote form of Leishmania donovani assessed as skin rashes at 50 mg/kg, ip administered for 5 days; type: organism-based, Mesocricetus auratus; conditions: in vivo, 120 h, time 5 day
[9] = Toxicity against golden hamster infected with amastigote form of Leishmania donovani assessed as discomfort at 50 mg/kg, ip administered for 5 days; type: organism-based, Mesocricetus auratus; conditions: in vivo, 120 h, time 5 day
[10] = Toxicity against golden hamster infected with amastigote form of Leishmania donovani assessed as animal's death at 50 mg/kg, ip administered for 5 days; type: organism-based, Mesocricetus auratus; conditions: in vivo, 120 h, time 5 day
[11] = system: Leishmania donovani; assay: Antileishmanial activity against amastigote form of Leishmania donovani infected in golden hamster assessed as reduction in parasite load in spleen at 50 mg/kg, ip administered for 5 days and measured on day 7 post-drug treatment by Giemsa staining based analysis; type: functional; conditions: 288 h, time 12 day
[12] = Volume of distribution in golden hamster at 50 mg/kg, ip measured for 24 hrs by LC-MS/MS analysis; type: ADME, organism-based, Mesocricetus auratus; conditions: in vivo
[13] = Clearance in golden hamster at 50 mg/kg, ip measured for 24 hrs by LC-MS/MS analysis; type: ADME, organism-based, Mesocricetus auratus; conditions: in vivo
[14] = AUC in golden hamster at 50 mg/kg, ip measured for 24 hrs by LC-MS/MS analysis; type: ADME, organism-based, Mesocricetus auratus; conditions: in vivo
[15] = system: Leishmania donovani; assay: Antileishmanial activity against amastigote form of Leishmania donovani infected in golden hamster assessed as reduction in parasite load in spleen at 50 mg/kg, ip administered for 5 days and measured on day 28 post-dug treatment by Giemsa staining based analysis; type: functional; conditions: 792 h, time 33 day
[16] = Tmax in golden hamster at 50 mg/kg, ip measured for 24 hrs by LC-MS/MS analysis; type: ADME, organism-based, Mesocricetus auratus; conditions: in vivo
[17] = Half life in golden hamster at 50 mg/kg, ip measured for 24 hrs by LC-MS/MS analysis; type: ADME, organism-based, Mesocricetus auratus; conditions: in vivo
[18] = Cmax in golden hamster at 50 mg/kg, ip measured for 24 hrs by LC-MS/MS analysis; type: ADME, organism-based, Mesocricetus auratus; conditions: in vivo
[19] = system: Leishmania donovani; assay: Antileishmanial activity against Leishmania donovani assessed as inhibition of parasite growth; type: functional, organism-based

Row | SMILES | inhibition [1] | IC50 [2] [µM] | selectivity ratio [3] | CC50 at 48 h [4] [µM] | also measured
1 | Cc1cc(-c2ccc(OCC(O)CN3CCN(c4cccc(Cl)c4Cl)CC3)cc2)nc2ccccc12 (stereo not drawn) | inactive |  |  |  | 
2 | O=[N+]([O-])c1ccc2nc(-c3ccc(OCC(O)CN4CCCC4)cc3)cc(-c3ccccc3)c2c1 (stereo not drawn) | inactive |  |  |  | 
3 | O=[N+]([O-])c1ccc2nc(-c3ccc(OCC(O)CN4CCN(c5cccc(Cl)c5Cl)CC4)cc3)cc(-c3ccccc3)c2c1 (stereo not drawn) | inactive |  |  |  | 
4 | OC(COc1ccc(-c2cc(-c3ccccc3Cl)c3cc(Cl)ccc3n2)cc1)CN1CCN(c2ccccc2Cl)CC1 (stereo not drawn) | inactive |  |  |  | 
5 | OC(COc1ccc(-c2cc(-c3ccccc3)c3ccc(Br)cc3n2)cc1)CN1CCCC1 (stereo not drawn) |  | 5.32 | 9.34 | 49.7 | 
6 | OC(COc1ccc(-c2cc(-c3ccccc3)c3ccccc3n2)cc1)CN1CCN(c2ccccn2)CC1 (stereo not drawn) |  | 7.01 | 3.88 | 27.2 | 
7 | O=C(c1ccco1)N1CCN(CC(O)COc2ccc(-c3cc(-c4ccccc4)c4ccccc4n3)cc2)CC1 (stereo not drawn) |  | 8.22 | 2.64 | 21.8 | 
8 | OC(COc1ccc(-c2ccc3ccccc3n2)cc1)CN1CCN(c2cccc(Cl)c2Cl)CC1 (stereo not drawn) | inactive |  |  |  | 
9 | COc1ccccc1N1CCN(C(=O)CN(Cc2ccccc2)c2ccc(Cl)cc2)CC1 |  |  |  |  | IC50 [5]: 3.61 µM; IC50 [6]: 44.1 µM
10 | OC(COc1ccc(-c2cc(-c3ccccc3Cl)c3cc(Cl)ccc3n2)cc1)CN1CCN(c2ccccc2)CC1 (stereo not drawn) | inactive |  |  |  | 
11 | OC(COc1ccc(-c2cc(-c3ccccc3)c3ccccc3n2)cc1)CN1CCN(c2cccc(Cl)c2Cl)CC1 (stereo not drawn) | inactive |  |  |  | 
12 | OC(COc1ccc(-c2cc(-c3ccccc3Cl)c3cc(Cl)ccc3n2)cc1)CN1CCN(c2ccccn2)CC1 (stereo not drawn) |  | 5.56 | 7.52 | 41.9 | 
13 | OC(COc1ccc(-c2cc(-c3ccccc3Cl)c3cc(Cl)ccc3n2)cc1)CN1CCN(c2cccc(Cl)c2Cl)CC1 (stereo not drawn) |  | 5.39 | 11.8 | 63.5 | MRT [7]: 5.56 h; Activity [8]: Non-Toxic; Activity [9]: Non-Toxic; Activity [10]: Non-Toxic; inhibition in vivo at 50 mg/kg [11]: 40.7%; Vd [12]: 11.25 L/kg; CL/F [13]: 25.8 mL/min/kg; AUC at 24 h [14]: 32900 ng·h/mL; inhibition in vivo at 50 mg/kg [15]: 56.3%; Tmax [16]: 2 h; half-life [17]: 5 h; Cmax [18]: 9930 ng/mL
14 | Cc1ccc2c(-c3ccccc3)cc(-c3ccc(OCC(O)CN4CCCC4)cc3)nc2c1 (stereo not drawn) | inactive |  |  |  | 
15 | Cc1ccc(Cl)cc1N1CCN(CC(O)COc2ccc(-c3cc(-c4ccccc4Cl)c4cc(Cl)ccc4n3)cc2)CC1 (stereo not drawn) | inactive |  |  |  | 
16 | OC(COc1ccc(-c2cc(-c3ccccc3)c3cc(Cl)ccc3n2)cc1)CN1CCN(c2ccccc2)CC1 (stereo not drawn) | inactive |  |  |  | 
17 | Cc1ccc2c(-c3ccccc3)cc(-c3ccc(OCC(O)CN4CCN(c5cccc(Cl)c5Cl)CC4)cc3)nc2c1 (stereo not drawn) | inactive |  |  |  | 
18 | OC(COc1ccc(-c2cc(-c3ccccc3)c3ccccc3n2)cc1)Cn1cncn1 (stereo not drawn) | inactive |  |  |  | 
19 | COc1ccc(N2CCN(CC(O)COc3ccc(-c4cc(-c5ccccc5Cl)c5cc(Cl)ccc5n4)cc3)CC2)cc1 (stereo not drawn) | inactive |  |  |  | 

Row | SMILES | inhibition [1] | IC50 [2] [µM] | selectivity ratio [3] | CC50 at 48 h [4] [µM] | also measured
20 | Cc1ncc([N+](=O)[O-])n1CC(O)COc1ccc(-c2cc(-c3ccccc3)c3ccccc3n2)cc1 (stereo not drawn) | inactive |  |  |  | 
21 | CCOC(=O)N1CCN(CC(O)COc2ccc(-c3cc(-c4ccccc4)c4cc(Cl)ccc4n3)cc2)CC1 (stereo not drawn) | inactive |  |  |  | 
22 | OC(COc1ccc(-c2cc(-c3ccccc3)c3cc(Cl)ccc3n2)cc1)CN1CCN(c2cccc(Cl)c2Cl)CC1 (stereo not drawn) | inactive |  |  |  | 
23 | OC(COc1ccc(-c2cc(-c3ccccc3)c3cc(Cl)ccc3n2)cc1)CN1CCCC1 (stereo not drawn) |  | 2.09 | 10.3 | 21.4 | MRT [7]: 6.35 h; Activity [8]: Non-Toxic; Activity [9]: Non-Toxic; Activity [10]: Non-Toxic; inhibition in vivo at 50 mg/kg [11]: 27.8%; Vd [12]: 3.88 L/kg; CL/F [13]: 9.5 mL/min/kg; AUC at 24 h [14]: 85000 ng·h/mL; inhibition in vivo at 50 mg/kg [15]: 49.3%; Tmax [16]: 2 h; half-life [17]: 4.67 h; Cmax [18]: 17600 ng/mL
24 | NC(CC(=O)N1CC(CO)C(c2ccc(Cl)cc2)C1)Cc1ccc(Cl)cc1 (stereo not drawn) |  |  |  |  | IC50 [19]: 0.093 µM
25 | OC(COc1ccc(-c2cc(-c3ccccc3)c3ccccc3n2)cc1)CN1CCN(c2ccccc2F)CC1 (stereo not drawn) | inactive |  |  |  | 
26 | OC(COc1ccc(-c2cc(-c3ccccc3Cl)c3cc(Cl)ccc3n2)cc1)CN1CCN(c2ccccc2F)CC1 (stereo not drawn) | inactive |  |  |  | 
27 | CCCCCCCCCCCCCCCCOP(=O)([O-])OCC[N+](C)(C)C [MILTEFOSINE] |  | 9.25 | 5.76 |  | 
28 | OC(COc1ccc(-c2ccc3ccccc3n2)cc1)CN1CCCC1 (stereo not drawn) |  | 8.89 | 6.15 | 54.7 | 
29 | OC(COc1ccc(-c2cc(-c3ccccc3)c3ccccc3n2)cc1)Cn1ccnc1 (stereo not drawn) |  | 3.37 | 10.1 | 34 | 
30 | OC(COc1ccc(-c2cc(-c3ccccc3)c3ccccc3n2)cc1)CN1CCCC1 (stereo not drawn) |  | 4.38 | 4.73 | 20.8 | 
31 | O=C(c1ccco1)N1CCN(CC(O)COc2ccc(-c3cc(-c4ccccc4Cl)c4cc(Cl)ccc4n3)cc2)CC1 (stereo not drawn) | inactive |  |  |  | 
32 | O=C(c1ccco1)N1CCN(CC(O)COc2ccc(-c3cc(-c4ccccc4)c4cc(Cl)ccc4n3)cc2)CC1 (stereo not drawn) |  | 8.13 | 7.1 | 57.8 | 
33 | NC(=O)C1CCN(CC(O)COc2ccc(-c3cc(-c4ccccc4)c4ccccc4n3)cc2)CC1 (stereo not drawn) | inactive |  |  |  | 
34 | OC(COc1ccc(-c2cc(-c3ccccc3)c3ccc(Br)cc3n2)cc1)CN1CCN(c2cccc(Cl)c2Cl)CC1 (stereo not drawn) | inactive |  |  |  | 
35 | Cc1ccc(Cl)cc1N1CCN(CC(O)COc2ccc(-c3cc(-c4ccccc4)c4ccccc4n3)cc2)CC1 (stereo not drawn) | inactive |  |  |  | 
36 | OC(COc1ccc(-c2cc(-c3ccccc3F)c3cc(Cl)ccc3n2)cc1)CN1CCCC1 (stereo not drawn) |  | 2.4 | 9.41 | 22.7 | 
37 | OC(COc1ccc(-c2cc(-c3ccccc3F)c3cc(Cl)ccc3n2)cc1)CN1CCN(c2cccc(Cl)c2Cl)CC1 (stereo not drawn) | inactive |  |  |  | 
38 | OC(COc1ccc(-c2cc(-c3ccccc3)c3ccccc3n2)cc1)CN1CCN(c2ccccc2)CC1 (stereo not drawn) |  | 5.39 | 3.98 | 21.5 | 
